The experiment has as its target T1, FOLR (Homo sapiens, UniProt P15328).
T1 construct: Target cells: IGROV1 cells (typically 1000-20,000 cells per well); endogenous in cells; host or cells: IGROV1 cells
As to the kind of experiment: Antibody dependent cellular cytotoxicity (ADCC) reporter assay. It is filed as cell-based. The following applies: IGROV1 target cells; anti-cotinine antibody (SEQ ID NO: 11/12, human IgG1 Fc S239D/I332E); Jurkat FcγRIIIa NFAT-luciferase reporter cells; about 12-18 hours; one value per experimental run; EC50 in molar (M); footnote: pEC50 < 5 = inactive. The procedure: An antibody dependent cellular cytotoxicity (ADCC) reporter assay was conducted using the following four assay components: (i) ARM compound of Formula (I) targeting FOLR (concentrations ranging from 1 pM to 10 μM); (ii) anti-cotinine antibody having a heavy chain sequence of SEQ ID NO: 11 and a light chain sequence of SEQ ID NO: 12 (rabbit variable region with human IgG1 Fc domain containing DE mutation (S239D/I332E)) (concentrations ranging from 0.01 μg/mL-200 μg/mL); (iii) Target cells: IGROV1 cells (typically 1000-20,000 cells per well); and (iv) Reporter cells—Jurkat cells engineered to express FcγRIIIa with a reporter gene luciferase under the control of the NFAT promoter (typically 3000-75,000 cells per well). Reagents were combined in final volume of 20 μL in 384-well tissue culture treated plate. […]
Luminescence signal was measured on a microplate reader capable of measuring luminescence and signal: background was calculated by dividing the signal of a test well by the signal obtained when no compound of formula (I) was included in the assay. […]
ARMs compounds of Formula (I) were tested for ADCC activity in the above assay in one or more experimental runs and the results are shown in Table 3 below. […] The pEC50 value is the negative log of the EC50 value, wherein the EC50 value is half maximal effective concentration measured in molar (M). […]
On the technique in general: A reporter such as luciferase makes a cellular process visible.

Several values for one entry are separate records, joined by “and”; a condition that tells them apart may be missing. Identical values can stand only once.

T1 sequence (P15328 25-234 limits assumed): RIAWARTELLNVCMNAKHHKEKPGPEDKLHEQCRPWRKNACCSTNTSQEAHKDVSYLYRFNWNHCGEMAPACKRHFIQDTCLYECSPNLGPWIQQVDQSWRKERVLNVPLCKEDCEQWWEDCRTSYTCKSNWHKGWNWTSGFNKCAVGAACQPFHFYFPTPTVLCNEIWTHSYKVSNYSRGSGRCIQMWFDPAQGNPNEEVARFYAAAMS

One may read the EC50 as the midpoint of the concentration-response curve. A high value points to a less potent agent. For `CN1C(=O)C[C@H](C(=O)NCCO[C@H]2CC[C@H](OCCCC(=O)N[C@H]3CC[C@H](C(=O)NCCNC(=O)CC[C@H](NC(=O)c4ccc(NCc5cnc6nc(N)[nH]c(=O)c6n5)cc4)C(=O)O)CC3)CC2)[C@H]1c1cccnc1` (racemic) [Example 2, N2-(4-(((2-Amino-4-oxo-3,4-dihydropteridin-6-yl)methyl)amino)benzoyl)-N5-(2-((1R,4S)-4-(4-(((1S,4R)-4-(2-((2S,3S)-1-methyl-5-oxo-2-(pyridin-3-yl)pyrrolidine-3-carboxamido)-ethoxy)cyclohexyl)oxy)butanamido)cyclohexane-1-carboxamido)ethyl)-L-glutamine], the half-maximal effective concentration (EC50) was 6.31e-08 M and 7.94e-08 M.

Regarding `CN1C(=O)C[C@H](C(=O)NCCNC(=O)CC[C@H](NC(=O)c2ccc(NCc3cnc4nc(N)[nH]c(=O)c4n3)cc2)C(=O)O)[C@H]1c1cccnc1` [Example 1, N2-(4-(((2-Amino-4-oxo-3,4-dihydropteridin-6-yl)methyl)amino)benzoyl)-N5-(2-((2S,3S)-1-methyl-5-oxo-2-(pyridin-3-yl)pyrrolidine-3-carboxamido)ethyl)-L-glutamine], the “ADCC Reporter Assay pEC50” value is 4.5 and 4.8.

The record behind these values is US20250049932A1, “CYTOTOXICITY TARGETING CHIMERAS FOR FOLATE RECEPTOR-EXPRESSING CELLS” (GLAXOSMITHKLINE INTELLECTUAL PROPERTY DEVELOPMENT LIMITED, priority 2022, published 2025).
